Data set [1] in a line: Hydrodynamic radius / size distribution of micelles by dynamic light scattering (DLS). The class given is physicochemical. The settings on record: 1.0 wt % amphiphile. Here is the method:
A method of measuring a radius of the micelle is not particularly limited, and those methods widely known in the related field may be used, for example, a dynamic light scattering (DLS) experiment may be used for measurement.
(§1) Specifically, a CMC was measured by a fluorophorescent encapsulation method using diphenylhexatriene (DPH) and an Rh of a micelle formed by each formulation (1.0 wt %) was measured using a dynamic light scattering (DLS) experiment.

A short description of data set [2]: Critical micelle concentration by fluorophore encapsulation using diphenylhexatriene (DPH). The class given is physicochemical. The settings on record: aqueous solution. As for the experimental part: A method of measuring a CMC is not particularly limited, and those methods widely known in the related field may be used. For example, a CMC may be measured by a fluorophore encapsulation method using diphenylhexatriene (DPH).
as §1

The target of data set [3] is T1, uric acid-xanthine/H+ symporter (UapA) (Emericella nidulans, UniProt Q07307, G411V).
T1 construct: GFP; made in house; host or cells: Saccharomyces cerevisiae FGY217
T1 sequence (Q07307 12-574 G411V): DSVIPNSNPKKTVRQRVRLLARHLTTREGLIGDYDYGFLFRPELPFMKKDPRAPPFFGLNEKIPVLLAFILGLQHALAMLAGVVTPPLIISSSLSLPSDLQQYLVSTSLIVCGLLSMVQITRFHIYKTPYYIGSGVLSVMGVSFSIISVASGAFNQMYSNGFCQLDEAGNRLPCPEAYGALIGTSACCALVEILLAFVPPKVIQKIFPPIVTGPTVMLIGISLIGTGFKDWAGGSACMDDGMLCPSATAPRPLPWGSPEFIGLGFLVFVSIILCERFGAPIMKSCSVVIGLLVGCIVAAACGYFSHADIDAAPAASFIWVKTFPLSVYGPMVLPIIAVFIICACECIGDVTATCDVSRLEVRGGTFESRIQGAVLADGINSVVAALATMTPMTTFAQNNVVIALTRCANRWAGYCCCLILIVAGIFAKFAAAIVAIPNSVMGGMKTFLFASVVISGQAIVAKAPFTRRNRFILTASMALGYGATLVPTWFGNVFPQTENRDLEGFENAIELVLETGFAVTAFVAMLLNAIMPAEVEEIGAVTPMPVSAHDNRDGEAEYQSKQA
Nature of the data set: UapA structural (thermal) stability, CPM assay. Format: biochemical, Aspergillus nidulans. The settings on record: for effect in maintaining folded UapA, ranking among MGAs: CMC+0.2 wt %, 40° C., 120 minutes. As for the experimental part: An experiment for measuring the structural stability of uric acid-xanthine/H^+ symporter (UapA) solubilized in MGAs in an aqueous solution was performed. The structural stability of UapA was measured using a CPM assay, and was measured at MGAs and DDM concentrations of (a) CMC+0.04 wt %, or (b) CMC+0.2 wt %.
Specifically, a UapA protein is a uric acid-xanthine/H^+ symporter in Aspergillus nidulans. Protein stability was measured by fluorescence spectroscopy using N-[4-(7-diethylamino-4-methyl-3-coumarinyl)phenyl]maleimide (CPM) which is a sulfhydryl-specific fluorophore. A free sulfhydryl group of a cysteine residue is in the interior of a protein, but becomes accessible to a solvent upon protein unfolding. CPM becomes fluorescent by a reaction with the free thiol, and thus provides as a protein unfolding sensor. In order to measure thermal stability, first, UapAG411V1-11 was expressed in the Saccharomyces cerevisiae FGY217 strain by fusion with GFP, and separated in a sample buffer (20 mM Tris (pH 7.5), 150 mM NaCl, 0.03% DDM and 1 mM xanthine) according to a method described in a research article (Mol. Membr. Biol. 2013, 30, 32-42) by J. Leung et al. A UapA protein was concentrated to about 10 mg/ml using a 100 kDa molecular weight cut-off filter (Millipore). The concentrated protein was diluted to a ratio of 1:150 with each buffer including DDM or MGA (MGA-C10, MGA-C11, MGA-C12, MGA-C13, MGA-C14 or MGA-C15) at a concentration of CMC+0.04 wt % or CMC+0.2 wt % in a Greiner 96-well plate. A CPM dye (Invitrogen) stored in DMSO (Sigma) was diluted with a dye buffer (20 mM Tris (pH 7.5), 150 mM NaCl, 0.03% DDM and 5 mM EDTA), and 3 μl of the diluted dye was added to each protein sample. The reaction mixture was incubated at 40° C. for 120 minutes. Fluorescence emission was monitored using a microplate spectrofluorometer, with an excitation wavelength at 387 nm and an emission wavelength at 463 nm. Relative maximum fluorescence was used to calculate a percentage of relative folded protein remaining after 120 minutes at 40° C. Relative unfolded proteins were plotted against time using GraphPad Prism.
Specifically, a UapA stabilization effect was evaluated by the same method as in Experimental Example 2 using MGA-C13, MGA-C14, MNG-3 or DDM at a concentration of (a) CMC+0.04 wt % or (b) CMC+0.2 wt %.

Data set [4] deals with T2, melibiose permease (MelBSt) (Salmonella typhimurium, UniProt P30878).
T2 construct: made in house; host or cells: DW2 cells (ΔmelB and ΔlacZY), Salmonella typhimurium DW2
T2 sequence (P30878 whole entry): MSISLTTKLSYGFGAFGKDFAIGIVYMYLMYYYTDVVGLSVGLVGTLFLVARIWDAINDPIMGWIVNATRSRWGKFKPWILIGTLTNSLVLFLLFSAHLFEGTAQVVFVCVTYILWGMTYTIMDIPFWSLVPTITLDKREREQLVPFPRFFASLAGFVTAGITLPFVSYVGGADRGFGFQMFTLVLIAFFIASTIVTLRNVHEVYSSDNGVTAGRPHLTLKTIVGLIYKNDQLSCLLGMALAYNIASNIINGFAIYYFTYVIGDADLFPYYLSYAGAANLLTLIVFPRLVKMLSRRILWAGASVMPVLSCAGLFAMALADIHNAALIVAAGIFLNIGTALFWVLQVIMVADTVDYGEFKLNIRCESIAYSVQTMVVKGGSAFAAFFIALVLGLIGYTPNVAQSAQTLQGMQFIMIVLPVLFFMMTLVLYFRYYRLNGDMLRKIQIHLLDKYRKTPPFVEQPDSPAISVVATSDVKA
Nature of the data set: MelBSt extraction from membranes and thermal stability, SDS-PAGE and Western blotting. Format: biochemical. The settings on record: 1.5 wt %, 90 minutes. Here is the method: An experiment for measuring the structural stability of Salmonella typhimurium melibiose permease (MelBSt) according to MGAs in an aqueous solution was performed. After MelBSt proteins were extracted from a membrane using MGAs or DDM, the amount and structure of extracted proteins were analyzed by SDS-PAGE and western blotting. The concentration of used amphiphiles was 1.5 wt %, and proteins were extracted at four different temperatures of 0, 45, 55 and 65° C. to evaluate both the protein extraction efficiency and stabilizing ability of a compound. A membrane sample which had not been treated with MGAs or DDM was used as a control group.
Specifically, MelBSt stability solubilized in DDM or MGAs was evaluated according to a method described in 2010 in a research article (P. S. Chae et al., Nat. Methods 2010, 7, 1003-1008.) by the inventors of the present invention. Proteins (MelBSt) were produced using plasmid pK95ΔAHB/WT MelBSt/CH10 encoding the wild-type MelB with a 6-His tag at the C-terminus and Salmonella typhimurium DW2 cells (ΔmelB and ΔlacZY). Cell growth and membrane preparation was performed according to a method described in a research article (Nat. Commun. 2014, 5, 3009) by A. S. Ethayathulla, et al. A protein assay was carried out using a Micro BCA kit (Thermo Scientific, Rockford, Ill.). In order to measure protein solubilization, a membrane sample (final protein concentration was 10 mg/mL) containing MelBSt was incubated with a solubilization buffer (20 mM sodium phosphate, pH 7.5, 200 mM NaCl, 10% glycerol and 20 mM melibiose) and 1.5% (w/v) DDM or MGA (MGA-C10, MGA-C11, MGA-C12, MGA-C13, MGA-C14 or MGA-C15) at four different temperatures of 0, 45, 55 and 65° C. for 90 minutes. After ultracentrifugation at 355,590 g in a Beckman Optima™ MAX Ultracentrifuge using a TLA-100 rotor for 45 min at 4° C., 20 μg of a protein was separated by SDS-16% PAGE and immunoblotted with a Penta-His-HRP antibody (Qiagen, Germantown, Md.). MelBSt was measured by an ImageQuant LAS 4000 Biomolecular Imager (GE Healthcare Life Sciences) using a SuperSignal West Pico chemiluminescent substrate.
For orientation: A western blot detects proteins with antibodies after separation by electrophoresis.

For data set [5], the system named is leucine transporter (LeuT). Nature of the data set: LeuT long-term stability, [3H]-Leu binding by scintillation proximity assay (SPA). Format: biochemical, Aquifex aeolicus. As for the experimental part:
An experiment for measuring the structural stability of LeuT proteins according to MGAs (MGA-C11, MGA-C12, MGA-C13, MGA-C14 and MGA-C15) was performed. Each amphiphile was used at a concentration of (a) CMC+0.04 wt % or (b) CMC+0.2 wt %, a ligand-binding activity of LeuT was measured by scintillation proximity assay (SPA) using [^3H]-Leucine. The measurement was performed at regular intervals at room temperature during 12 days of incubation.
Specifically, a thermophilic bacteria Aquifex aeolicus-derived wild type LeuT was purified using a previously described method (Nature, G. Deckert et al., 1998, 392, 353-358). To sum up, the LeuT was expressed in E. coli C41 (DE3) cultured in a lysogeny broth medium supplemented with 0.1 mg/ml ampicillin. Expression of proteins was induced by adding isopropyl β-D-thiogalactopyranoside to a final concentration of 0.1 mM.
A cell membrane was separated from a crushed cell (Constant Systems Homogenizers, Kennesaw, Ga.), and solubilized in 1% (w/v) n-dodecyl-β-D-maltopyranoside (DDM; Affymetrix, Santa Clara, Calif.). After solubilization, LeuT was fixed in a Ni^2+-NTA resin (Life Technologies, Denmark), and eluted in 20 mM Tris-HCl (pH 7.5), 199 mM KCl, 1 mM NaCl, 0.05% (w/v) DDM and 300 mM imidazole. Thereafter, purified LeuT (about 1.5 mg/ml) was diluted tenfold with a buffer supplemented with MGA (MGA-C11, MGA-C12, MGA-C13, MGA-C14 or MGA-C15) or DDM to the final concentration of CMC+0.04% (w/v) or CMC+0.2% (w/v) while excluding DDM and imidazole from the above-described buffers. Protein samples were stored at room temperature for 12 days, and protein activity was determined by measuring [^3H]-Leu binding by SPA at a specified time. SPA was carried out using 450 mM NaCl and buffers containing each MGA, and a SPA reaction was performed in the presence of 20 nM [^3H]-Leu and 1.25 mg/ml copper chelate (His-Tag) YSi beads (Perkin Elmer, Denmark). [^3H]-Leu binding was measured using a MicroBeta liquid scintillation counter (Perkin Elmer).
(In general: SPA uses beads or plates that emit light when radiolabelled molecules are held near them.)

The source of these data is patent publication US10640527B2, “Mesitylene-cored amphiphiles and uses thereof” (Industry-University Cooperation Foundation Hanyang …, priority 2016, dated 2020).

Regarding `CCCCCCCCCCCCC(CO[C@@H]1OC(CO)[C@@H](O)C(O)C1O)(CO[C@@H]1OC(CO)[C@@H](O)C(O)C1O)Cc1cc(CC(CCCCCCCCCCCC)(CO[C@@H]2OC(CO)[C@@H](O)C(O)C2O)CO[C@@H]2OC(CO)[C@@H](O)C(O)C2O)cc(CC(CCCCCCCCCCCC)(CO[C@@H]2OC(CO)[C@@H](O)C(O)C2O)CO[C@@H]2OC(CO)[C@@H](O)C(O)C2O)c1` (stereo partly drawn) [MGA-C12], the “Rh (nm), hydrodynamic radius of micelle” value in data set [1] is 3.1 ± 0.03 nm. Also, in data set [2], the “CMC” value is ~3.5 µM and the “CMC (wt %)” value is recorded as ~0.0006 wt %. In addition, the “effect in maintaining folded UapA, ranking among MGAs” value (from here on “effect in maintaining folded UapA”) in data set [3] is on record as “less effective than the above-described MGAs, but still higher than DDM”.

`CCCCCCCCCCCCCCC(CO[C@@H]1OC(CO)[C@@H](O)C(O)C1O)(CO[C@@H]1OC(CO)[C@@H](O)C(O)C1O)Cc1cc(CC(CCCCCCCCCCCCCC)(CO[C@@H]2OC(CO)[C@@H](O)C(O)C2O)CO[C@@H]2OC(CO)[C@@H](O)C(O)C2O)cc(CC(CCCCCCCCCCCCCC)(CO[C@@H]2OC(CO)[C@@H](O)C(O)C2O)CO[C@@H]2OC(CO)[C@@H](O)C(O)C2O)c1` (stereo partly drawn) [MGA-C14]: the “Rh (nm), hydrodynamic radius of micelle” value in data set [1] is given as 3.4 ± 0.04 nm. Moreover, the “MelBSt protein extraction efficiency compared with DDM” value in data set [4] (45° C.) was “same level of protein extraction efficiency as DDM”. In addition, in data set [4] (55° C.), the “MelBSt extraction ability compared with DDM” value is “higher MelBSt extraction ability than DDM”. Also, in data set [2], the “CMC” value is ~2 µM and the “CMC (wt %)” value is on record as ~0.0004 wt %. For the same compound, the “UapA stabilization effect compared with MNG-3” value in data set [3] (CMC+0.04 wt % or CMC+0.2 wt %, FIG. 25) is “far greater UapA stabilization effect than MNG-3”. The “effect in maintaining folded UapA” value in data set [3] is “had the highest effect”.

For `CCCCCCCCCCC(CO[C@@H]1OC(CO)[C@@H](O)C(O)C1O)(CO[C@@H]1OC(CO)[C@@H](O)C(O)C1O)Cc1cc(CC(CCCCCCCCCC)(CO[C@@H]2OC(CO)[C@@H](O)C(O)C2O)CO[C@@H]2OC(CO)[C@@H](O)C(O)C2O)cc(CC(CCCCCCCCCC)(CO[C@@H]2OC(CO)[C@@H](O)C(O)C2O)CO[C@@H]2OC(CO)[C@@H](O)C(O)C2O)c1` (stereo partly drawn) [MGA-C10], the “Rh (nm), hydrodynamic radius of micelle” value in data set [1] is on record as 2.9 ± 0.01 nm. For the same compound, in data set [2], the “CMC” value was ~8 µM and the “CMC (wt %)” value is ~0.0014 wt %. Also, the “effect in maintaining folded UapA” value in data set [3] is recorded as “less effective than the above-described MGAs, but still higher than DDM”.

`CCCCCCCCCCCC(CO[C@@H]1OC(CO)[C@@H](O)C(O)C1O)(CO[C@@H]1OC(CO)[C@@H](O)C(O)C1O)Cc1cc(CC(CCCCCCCCCCC)(CO[C@@H]2OC(CO)[C@@H](O)C(O)C2O)CO[C@@H]2OC(CO)[C@@H](O)C(O)C2O)cc(CC(CCCCCCCCCCC)(CO[C@@H]2OC(CO)[C@@H](O)C(O)C2O)CO[C@@H]2OC(CO)[C@@H](O)C(O)C2O)c1` (stereo partly drawn) [MGA-C11]: the “Rh (nm), hydrodynamic radius of micelle” value in data set [1] is 3.0 ± 0.04 nm. Further, in data set [2], the “CMC” value was ~5 µM and the “CMC (wt %)” value is ~0.009 wt %. Moreover, the “preservation of long-term stability of LeuT, comparison with DDM and ranking” value in data set [5] (12 days at room temperature, CMC+0.04 wt % or CMC+0.2 wt %) is listed as “the most excellent MGA”. Besides, the “LeuT ligand-binding activity retained, % of initial activity” value in data set [5] (after 12 days of incubation at room temperature) was ~90%. The “effect in maintaining folded UapA” value in data set [3] was “less effective than the above-described MGAs, but still higher than DDM”.
